1 molecule from US7700644B2, “Isoflavonoid dimers” (Novogen Research Pty Ltd, priority 2005, dated 2010) can be followed below.

One experiment concerns HT-29 (Colorectal). In words: In vitro cytotoxicity, MTT proliferation assay, HT-29. Type of experiment: cell-based, human. The following applies: Homo sapiens; Colorectal HT-29. How it is done:
The human pancreatic cancer cell line, HPAC (CRL-2119) was routinely cultured in 1:1 mixture DMEM (Sigma) plus Ham's F12 (Sigma) medium containing HEPES (15 mM), insulin (0.002 mg/ml), transferrin (0.005 mg/ml), hydrocortisone, (40 ng/ml), epidermal growth factor (10 ng/ml). The ovarian cancer cell line CP70 was obtained as a gift from Dr. Gil Mor (Yale University) and cultured in a 1:1 mixture DMEM plus Ham's F12 medium, and SKOV-3 was purchased from ATCC and cultured in McCoy's 5a medium. The breast cancer cell line MDA-MB-468 cultured in Leibovitz's L-15 medium.
All cultures were supplemented with 10% FCS(CSL, Australia), penicillin (100 U/ml), streptomycin ([…]), L-glutamine (2 mM) and sodium bicarbonate (1.2 g/L), and cultured at 37° C. in a humidified atmosphere of 5% CO2. All remaining cell lines were purchased from ATCC (Maryland, USA) except where noted.
IC50 values were determined for each cell line. Cells were seeded in 96-well plates at an appropriate cell density as determined from growth kinetics analysis. NFFs were cultured for 5 days and RK-13s for 24 hrs in the absence and presence of the test compounds. Cell proliferation was assessed after the addition of 20 μl of 3-4,5 dimethylthiazol-2,5-diphenyl tetrazolium bromide (MTT, 2.5 mg/ml in PBS, Sigma) for 3-4 hrs at 37° C. according to manufacturer's instructions. IC50 values were calculated from semi-log plots of % of control proliferation on the y-axis against log dose on the x-axis.
A general note: Tetrazolium dyes change colour on reduction, which living cells bring about.

In another experiment the test system is thoracic aorta. In words: Aortic ring contractility induced by noradrenaline. On the set-up: species or system Male Sprague-Dawley rats. The following applies: in presence of Cpd. 2 1 μg/ml; 1.94±0.35 vs. 2.09±0.23, p>0.05, no effect; n=6 rings. How it is done: Male Sprague-Dawley rats (250±50 g) were euthanased with 80% CO2 and 20% O2. The thoracic aorta was excised and quickly mounted in organ-baths as described (Chin-Dusting et al, 2001). Full concentration-contractile curves were obtained to noradrenaline ([…]) in the absence and presence of Cpd. 2 (1 μg/ml). Experiments were repeated in n=6 different rings from 6 different animals.

The next experiment relates to PGE2. In words: PGE2 in murine macrophages (RAW 264.7) stimulated with LPS. Particulars: RAW 264.7, LPS 50 ng/ml, 16 hrs, dose responsive. The class given is cell-based, mouse. The method, then:
The mouse macrophage cell line RAW 264.7 was cultured in DMEM supplemented with FCS, 2 mM glutamine and 50 U/ml penicillin/streptomycin. Subconfluent cells were detached from the flask by gentle scraping and 24-well plates seeded at 5×10^5 cells per well and allowed to adhere for 1 hr. Cells were then treated either test compounds (in 0.025% DMSO) or vehicle alone, and incubated for 1 hr. LPS 50 ng/ml (LPS —Sigma-Aldrich) was then added. After incubation for 16 hrs, culture media was collected and stored at −80° C. for ecosanoid and cytokine measurements using enzyme immunometric assays (PGE2 and TXB2—Cayman Chemical and TNFα—Becton Dickinson).

Another experiment has as its system unstimulated splenocytes. In words: Murine splenocytes, 24 hour pre-incubation with compound then mitogenic stimulation. The following applies: 10 μM. The class given is cell-based, Male Skh-1 (hairless) mice. The method, then:
Male Skh-1 (hairless) mice, six weeks old were killed by cervical dislocation. Single cell suspensions were made from their spleens and erythrocytes were lysed in buffer (0.14M NH4Cl, 17 mM Tris, pH 7.2). The remaining splenocytes were cultured in RPMI-1640 (Gibco) supplemented with 10% (v:v) FBS, 200 mM L-glutamine, penicillin/streptomycin and […] 2-mercaptoethanol. Splenocytes were added to triplicate wells containing either concanavalin A (ConA, Sigma-Aldrich—0.4 μg/well), lipopolysaccharide (LPS, Sigma-Aldrich—1 μg/well) or no mitogen, as well as 10 μM of either Compound 1 or Compound 2 in DMSO, or DMSO alone. Samples were analysed after a 3 day incubation at 37° C. in 5% CO2 in air. To assess cell numbers, methylthiazoletetrazolium (MTT) was added to each well, incubated for a further 4 hrs and then colour developed with 0.04N HCl in isopropanol (Mosmann 1983). Plates were read at 570 nm and 630 nm. The compounds were examined several times using different mice. For each assay, the effect of test compound was compared with that of vehicle control, and the results compared using a student's t test (Prism). Statistically significant difference was determined to have occurred when p<0.05.
Another assay examined the effect pre-incubating unstimulated splenocytes with test compounds at 10 μM for 24 hours, removing the compounds and then assessing their ability to respond to mitogenic stimulation as described for the previous assay. Cell numbers were assessed after the 24 hr pre-incubation using MTT, and equal numbers of cells/well plated into 96 well plates as usual.

In general, IC50 refers to the concentration that gives 50% inhibition. Consider `COc1ccc(C23COc4c(ccc(O)c4C)C2C2c4ccc(O)c(C)c4OCC2c2cc(OC)c(OC)cc23)cc1OC` (stereo not drawn) [Cpd. 2, 4,9-Dihydroxy-14,15-dimethoxy-12a-(3′,4′-dimethoxyphenyl)-3,10-dimethyl-2,11-dioxa-(1H,12H)-6b,6c,12a,16b-tetrahydronaphtho[1,2-g]chrysene], for which half-maximal inhibition with HT-29 (Colorectal) (IC50) required 11.5 ± 6 µM. Further, the “maximal contractile response to noradrenaline” value with thoracic aorta is 2.09±0.23. The “effect on PGE2” value with PGE2 is given as “induced”. Moreover, in the experiment with unstimulated splenocytes, the “Splenocyte viability following three days' culture in the absence of mitogen” value was “significantly reduced” and the “reduction in cell numbers compared with vehicle alone” value was 55%. In the experiment with unstimulated splenocytes (compound removed), the “proliferative response to ConA after pre-incubation” value is “significantly less”.
